Reference: PubChem BioAssay (NCI)
“And” between values parts separate entries of the source, which are not always exact repeats. Equal entries are not always repeated.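 Cultured in 96-well plates, cells were exposed to test compound for 48 hours across five concentrations. Here, GI50 denotes the concentration required for 50% inhibition of growth. The concentration for full growth arrest is given as TGI.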

Legend:
Assay in all cases: NCI anticancer screen, dose series, 48 h
SR leukemia = test system: SR leukemia
NCI-H460 lung = test system: NCI-H460 lung
SK-MEL-5 melanoma = test system: SK-MEL-5 melanoma
UO-31 renal = test system: UO-31 renal
RPMI-8226 leukemia = test system: RPMI-8226 leukemia
SF-268 CNS = test system: SF-268 CNS
OVCAR-4 ovarian = test system: OVCAR-4 ovarian
MOLT-4 leukemia = test system: MOLT-4 leukemia
OVCAR-3 ovarian = test system: OVCAR-3 ovarian
HL-60(TB) leukemia = test system: HL-60(TB) leukemia

SMILES | GI50 (SR leukemia) | TGI (SR leukemia) | GI50 (NCI-H460 lung) | TGI (NCI-H460 lung) [µM] | GI50 (SK-MEL-5 melanoma) | TGI (SK-MEL-5 melanoma) | GI50 (UO-31 renal) | TGI (UO-31 renal) | GI50 (RPMI-8226 leukemia) | TGI (RPMI-8226 leukemia) | GI50 (SF-268 CNS) | TGI (SF-268 CNS) [µM] | GI50 (OVCAR-4 ovarian) [µM] | TGI (OVCAR-4 ovarian) [µM] | GI50 (MOLT-4 leukemia) | TGI (MOLT-4 leukemia) | GI50 (OVCAR-3 ovarian) | TGI (OVCAR-3 ovarian) | GI50 (HL-60(TB) leukemia) | TGI (HL-60(TB) leukemia)
CCN(CC)CCCNCc1cc(-c2ccccc2)nc2ccccc12 | 0.348 µM | 13.1 µM | 33.2 µM | > 100 | 5.49 µM | 18.7 µM | 3.96 µM | 50.5 µM | 2.53 µM | 16.5 µM | 4.72 µM | > 100 | 6.91 | > 100 | 0.751 µM | > 100 µM | 4.13 µM | > 100 µM | 1.62 µM | 14.9 µM
COc1cc(-c2cc(O)c(-c3ccc4ccccc4n3)c(=O)[nH]2)cc(OC)c1OC |  | 20.9 µM |  | > 80.6 |  | 62.6 µM |  | > 100 µM |  | > 95.3 µM |  | > 80.5 |  | > 53.6 |  | 50.9 µM |  | > 48.9 µM |  | 35.3 µM
CCOC(=O)c1cc2c(cc1Cl)SC(N(c1ccc(OC)cc1)S(=O)(=O)c1ccc(Cl)cc1)=NS2(=O)=O | 24.8 µM | 98.6 µM | 37.3 µM | > 100 | 21.2 µM | 54.4 µM | 32 µM | > 100 µM | 31.3 µM | > 100 µM | 23.5 µM | 67.6 | 26.1 | > 100 | 30.7 µM | > 100 µM | 22.1 µM | 54.4 µM | 36.6 µM | > 100 µM
NC(=O)/N=C1/CCC2C3CCCC2C13 |  | > 100 µM |  | > 100 |  | > 100 µM |  | > 100 µM |  | > 100 µM |  | > 100 |  | > 100 |  | > 100 µM |  | > 100 µM |  | > 100 µM
Oc1ccc2ccccc2c1N=Nc1ccsc1 |  | > 100 µM |  | > 100 |  | > 100 µM |  | > 100 µM |  | > 100 µM |  | > 100 |  | > 100 |  | > 100 µM |  | > 100 µM |  | > 100 µM
CNC(=O)c1ccccc1Nc1nc(Nc2cc(OC)c(OC)c(OC)c2)ncc1Br | 0.0254 µM |  | 0.0291 µM | 1.37 | 0.054 µM | 1.18 µM | < 0.014 µM | 0.0849 µM | 0.0701 µM | 2.84 µM | 0.0384 µM | 2.18 | 0.0287 | 2.4 | 0.0501 µM | 5.75 µM | 0.0695 µM | 25 µM | 0.0245 µM | 0.181 µM
Cc1ccc(S(=O)(=O)NC2(C=O)CCCC3CCCCC32)cc1 (configuration not stated) |  | > 100 µM |  | > 100 |  | > 100 µM |  | > 100 µM |  | > 100 µM |  | > 100 |  | > 100 |  | > 100 µM |  | > 100 µM |  | > 100 µM
Cc1nc(-c2cn3c(n2)-c2ccc(-c4cnn(C(C)(C)C(N)=O)c4)cc2OCC3)n(C(C)C)n1 | 4.97 µM and 8.69 µM | 26.1 µM and > 10 µM | 0.111 µM and 0.169 µM | > 100 | 4.1 µM and 2.79 µM | 17.2 µM and > 10 µM | 0.185 µM and 0.14 µM | 15.3 µM and > 8.44 µM | 5.9 µM and > 8.93 µM | 28.5 µM and > 10 µM | 3.7 µM and 2.29 µM | > 100 |  | > 10 | 0.136 µM and 0.282 µM | 22.8 µM and > 10 µM | 0.876 µM and 0.582 µM | 16.6 µM and > 10 µM | < 0.0202 µM and 0.00955 µM | 25.8 µM and > 10 µM
CC12CCC3(OCCO3)C(OC(=O)c3ccccc3)=C1CCC21OCCO1 (configuration not stated) |  | > 100 µM |  | > 100 |  | > 100 µM |  | > 100 µM |  | > 100 µM |  | > 100 |  | > 100 |  | > 100 µM |  | > 100 µM |  | > 100 µM
CC(=O)c1c(C)[nH]c(-c2nc3ccc(N4CCN(C)CC4)cc3[nH]2)c1-c1ccc(N(C)C)cc1 | 0.923 µM | 6.81 µM | 2.76 µM | > 56.2 | 1.19 µM | 4.59 µM | 0.211 µM | 7.33 µM | 0.25 µM | 1.64 µM | 4.1 µM | 26.8 | 1.17 | 33.6 | 1.5 µM | 45.2 µM | 1.17 µM | 17 µM | 0.118 µM | 0.596 µM
N=c1ccn(O)cc1/C=C1/C(=O)Nc2ccccc21 | > 100 µM | > 100 µM | > 100 µM | > 100 | > 100 µM | > 100 µM | > 100 µM | > 100 µM | > 100 µM | > 100 µM | > 100 µM | > 100 | > 100 | > 100 | > 100 µM | > 100 µM | > 100 µM | > 100 µM | > 100 µM | > 100 µM
COc1cccc(NC(=O)c2sc3nc(C)c(C(O)c4ccccc4)cc3c2N)c1 (configuration not stated) | 0.0503 µM | 22.1 µM | 0.324 µM | 3.21 | 0.287 µM | 1.32 µM | 0.85 µM | 18.9 µM | 0.357 µM | 12.3 µM | 1.05 µM | 30.9 | 0.811 | 32.7 | 0.378 µM | 19.5 µM | 0.255 µM | 2.93 µM | 0.231 µM | 0.742 µM
CC(C)=CCC[C@](C)(O)[C@H]1CC[C@]2(C)[C@@H]1CC[C@@H]1[C@@]3(C)CC/C(=N/O)C(C)(C)[C@@H]3CC[C@]12C | 7.65 µM | 49.4 µM | 5.54 µM | > 100 | 19.4 µM | > 100 µM | 16.9 µM | > 100 µM | 7.68 µM | > 100 µM | 21.5 µM | > 100 | 13.9 | > 100 | 10.1 µM | > 100 µM | 10.6 µM | 39.2 µM | 8.69 µM | > 100 µM
COCc1cc(C(=O)Nc2cc([C@H]3CC[C@@H](OC(=O)NC(C)C)C3)[nH]n2)n(C)n1 | 1.32 µM | 9.9 µM | 5.64 µM | > 100 | 15.6 µM | 39.3 µM | 16 µM | 58.6 µM | 14.2 µM | 47 µM | 12.1 µM | 50.5 | 4.89 | 77.2 | 5.34 µM | 68.1 µM | 2.55 µM | 30.6 µM | 2.55 µM | 11.4 µM
COc1cc(NCCCN=C(N)NC(N)=NC(C)C)c2ncccc2c1 | 7.71 µM | 45.8 µM | 14.6 µM | > 79.5 | 2.17 µM | 6.38 µM | > 97.1 µM | > 100 µM | 6.55 µM | 26.2 µM | 4.98 µM | > 57.5 | 0.0588 | 1.64 | 6.62 µM | > 47.5 µM | 0.112 µM | 0.876 µM | 10.8 µM | 31.8 µM
C[C@@]12CCC[C@@](C)(C(=O)O)C1CC[C@]13C[C@@](O)(CO)[C@](O)(CCC12)C3 (some centres not stated) | 55.3 µM | > 100 µM | > 100 µM | > 100 | > 100 µM | > 100 µM | > 100 µM | > 100 µM | > 100 µM | > 100 µM | > 100 µM | > 100 | > 100 | > 100 | > 100 µM | > 100 µM | > 100 µM | > 100 µM | > 100 µM | > 100 µM
CN(Cc1ccccc1)c1ccc(CO)c(Cl)c1 | 19 µM | > 86.6 µM | 1.72 µM | 14.6 | 13.6 µM | 37.5 µM | 15 µM | > 100 µM | 15.4 µM | > 96.2 µM | 47.2 µM | > 100 | 2.54 | 43.6 | 26.4 µM | > 82.6 µM | 3.36 µM | 12.9 µM | 17.4 µM | 80 µM
CC(C)([NH-])CO.CC(C)([NH-])CO.[Cl][Cd][Cl] | 20 µM | 44.5 µM | 11.3 µM | 24.6 | 4.47 µM |  | 35.4 µM | > 100 µM | 14.5 µM | 43.8 µM | 18.4 µM | 35.3 | 12.4 | 25.8 | 21.8 µM | 47.3 µM | 20.2 µM | 38 µM | 26.9 µM | 55.8 µM
O=C1C=CC(=Nc2cc(Br)c(O)c(Br)c2)C=C1 | 2.13 µM | > 100 µM | 27.2 µM | 84.9 | 15.6 µM | 32.1 µM | 22 µM | > 100 µM | 11.9 µM | > 100 µM | 24.6 µM | > 100 | 43 | > 100 | 8.71 µM | > 100 µM | 19.7 µM | > 100 µM | 7.65 µM | 51.2 µM
c1ccc(CN2COc3c(ccc4c3OCN(Cc3ccccc3)C4)C2)cc1 | 0.534 µM | > 100 µM | 0.399 µM | > 100 | 0.501 µM | 2.04 µM | 0.122 µM | 1.41 µM | 1.41 µM | > 100 µM | 0.605 µM | > 35.6 | 0.333 | > 100 | 0.409 µM | > 100 µM | 0.64 µM | > 89.8 µM | 2.33 µM | 7.52 µM
